Laboratory results reported in PMC9133015 (Nature Communications, 2022).
“And” between values parts separate entries of the source, which are not always exact repeats. Equal values may be shown once.

Tests used:
DU145 cells [1] = test: Anti-proliferation activity assay (CCK8, 72 h); type: cell-based, human; conditions: DU145, replicates
PC-3 cells [2] = test: Anti-proliferation activity assay (CCK8, 72 h); type: cell-based, human; conditions: PC-3, replicates
22Rv1 cells [3] = test: Anti-proliferation activity assay (CCK8, 72 h); type: cell-based, human; conditions: 22Rv1, replicates
RWPE-1 cells = test: Anti-proliferation activity assay (CCK8, 72 h); type: cell-based; conditions: RWPE1, replicates
PC-3 cells [4] = test: Cell growth assay (5-day course); type: cell-based, human; conditions: PC-3, 40 µM, replicates
22Rv1 cells [5] = test: Colony formation assay; type: cell-based, human; conditions: 22Rv1, 20 μM, replicates
DU145 cells [6] = test: Colony formation assay; type: cell-based, human; conditions: DU145, 40 μM, replicates
PC-3 cells [7] = test: Colony formation assay; type: cell-based, human; conditions: 40 µM, replicates
22Rv1 cells [8] = test: Migration assay (transwell); type: cell-based, human; conditions: 22Rv1, 20 μM, replicates
DU145 cells [9] = test: Migration assay (transwell); type: cell-based, human; conditions: DU145, 40 μM, replicates
PC-3 cells [10] = test: Migration assay (transwell); type: cell-based, human; conditions: PC-3; 40 µM; replicates
DU145 cells [11] = test: Invasion assay (transwell); type: cell-based, human; conditions: DU145, 40 μM, replicates
PC-3 cells [12] = test: Invasion assay (transwell); type: cell-based, human; conditions: PC-3; 40 µM; replicates
22Rv1 cells [13] = test: Invasion assay (transwell); type: cell-based, human; conditions: 22Rv1, 20 μM, replicates
22Rv1 cells [14] = test: Apoptosis assay (Annexin V-APC/PI flow cytometry); type: cell-based, human; conditions: 22Rv1, 20 μM, replicates
DU145 cells [15] = test: Apoptosis assay (Annexin V-APC/PI flow cytometry); type: cell-based, human; conditions: DU145, 40 μM, replicates
PC-3 cells [16] = test: Apoptosis assay (Annexin V-APC/PI flow cytometry); type: cell-based, human; conditions: PC-3; 40 µM; replicates
22Rv1 cells [17] = test: Cell cycle assay (PI flow cytometry); type: cell-based, human; conditions: 22Rv1, 20 μM, replicates
DU145 cells [18] = test: Cell cycle assay (PI flow cytometry); type: cell-based, human; conditions: DU145, 40 μM, replicates
PC-3 cells [19] = test: Cell cycle assay (PI flow cytometry); type: cell-based, human; conditions: PC-3, 40 µM, replicates
DU145 xenograft [20] = test: In vivo antitumor activity, DU145 xenograft mouse model; set-up: species or system BALB/c nude mice; conditions: for Tumor volume (Fig. 7a): individual mice 1-10, in cm³ (unit assumed)
DU145 xenograft [21] = test: H&E and Ki67 staining of xenograft tumor tissues; type: in vivo, BALB/c nude mice; conditions: DU145, reference drug groups, replicates

**Q.** CNC(=O)c1ccc(N2C(=S)N(c3ccc(C#N)c(C(F)(F)F)c3)C(=O)C2(C)C)cc1F [enzalutamide] was tested. Which optical density (DU145 cells [1]; 2.5 uM) did it give?
**A.** Its optical density is 1.167 and 1.145 and 1.124.

**Q.** And the optical density (DU145 cells [1]; 5 uM)?
**A.** The optical density was 1.127 and 1.118 and 1.073.

**Q.** What about the optical density (DU145 cells [1]; 10 uM) of the same molecule?
**A.** Its optical density is 1.073 and 1.05 and 1.035.

**Q.** And the optical density (DU145 cells [1]; 20 uM)?
**A.** The optical density was 0.93 and 0.926 and 0.882.

**Q.** And the optical density (DU145 cells [1]; 40 uM)?
**A.** The optical density was 0.602 and 0.626 and 0.546.

**Q.** And the optical density (DU145 cells [1]; 80 uM)?
**A.** The optical density was 0.325 and 0.374 and 0.256.

**Q.** And the optical density (PC-3 cells [2]; 2.5 uM)?
**A.** Its optical density is 1.074 and 1.037 and 1.019.

**Q.** What about the optical density (PC-3 cells [2]; 5 uM) of the same molecule?
**A.** The optical density was 1.05 and 1.004 and 0.976.

**Q.** And the optical density (PC-3 cells [2]; 10 uM)?
**A.** The optical density was 1.021 and 0.964 and 0.924.

**Q.** What about the optical density (PC-3 cells [2]; 20 uM) of the same molecule?
**A.** Its optical density is 0.935 and 0.906 and 0.894.

**Q.** What about the optical density (PC-3 cells [2]; 40 uM) of the same molecule?
**A.** The optical density was 0.769 and 0.721 and 0.688.

**Q.** What about the optical density (PC-3 cells [2]; 80 uM) of the same molecule?
**A.** Its optical density is 0.516 and 0.456 and 0.403.

**Q.** What about the optical density (22Rv1 cells [3]; 2.5 uM) of the same molecule?
**A.** The optical density was 0.81 and 0.838 and 0.791.

**Q.** And the optical density (22Rv1 cells [3]; 5 uM)?
**A.** The optical density was 0.775 and 0.808 and 0.759.

**Q.** What about the optical density (22Rv1 cells [3]; 10 uM) of the same molecule?
**A.** The optical density was 0.619 and 0.678 and 0.623.

**Q.** What about the optical density (22Rv1 cells [3]; 20 uM) of the same molecule?
**A.** The optical density was 0.455 and 0.528 and 0.472.

**Q.** And the optical density (22Rv1 cells [3]; 40 uM)?
**A.** Its optical density is 0.22 and 0.347 and 0.272.

**Q.** And the optical density (22Rv1 cells [3]; 80 uM)?
**A.** The optical density was 0.191.

**Q.** And the optical density (RWPE-1 cells; 2.5 uM)?
**A.** Its optical density is 0.992 and 1.025 and 0.996.

**Q.** And the optical density (RWPE-1 cells; 5 uM)?
**A.** The optical density was 0.949 and 0.989 and 0.956.

**Q.** What about the optical density (RWPE-1 cells; 10 uM) of the same molecule?
**A.** Its optical density is 0.858 and 0.962 and 0.898.

**Q.** What about the optical density (RWPE-1 cells; 20 uM) of the same molecule?
**A.** The optical density was 0.786 and 0.838 and 0.802.

**Q.** What about the optical density (RWPE-1 cells; 40 uM) of the same molecule?
**A.** The optical density was 0.517 and 0.686 and 0.593.

**Q.** What about the optical density (RWPE-1 cells; 80 uM) of the same molecule?
**A.** The optical density was 0.393 and 0.433 and 0.408.

**Q.** And the optical density (PC-3 cells [4]; day 0)?
**A.** The optical density was 0.269.

**Q.** What about the optical density (PC-3 cells [4]; day 1) of the same molecule?
**A.** The optical density was 0.288 and 0.29 and 0.285.

**Q.** And the optical density (PC-3 cells [4]; day 2)?
**A.** The optical density was 0.517 and 0.519 and 0.473.

**Q.** And the optical density (PC-3 cells [4]; day 3)?
**A.** The optical density was 0.701 and 0.705 and 0.6.

**Q.** And the optical density (PC-3 cells [4]; day 4)?
**A.** The optical density was 1.438 and 1.323 and 1.218.

**Q.** What about the “Colony formation (cell number)” value (22Rv1 cells [5]) of the same molecule?
**A.** Its value is 560 cell number and 530 cell number and 570 cell number.

**Q.** And the “Colony formation (cell number)” value (DU145 cells [6])?
**A.** The value was 205 cell number and 218 cell number and 226 cell number.

**Q.** And the “Colony formation (cell number)” value (PC-3 cells [7])?
**A.** Its value is 160 cell number and 145 cell number.

**Q.** And the “Cell migration (cell number)” value (22Rv1 cells [8])?
**A.** The value was 1459 cell number and 1378 cell number and 1390 cell number.

**Q.** And the “Cell migration (cell number)” value (DU145 cells [9])?
**A.** The value was 4002 cell number and 3988 cell number and 4105 cell number.

**Q.** What about the “Cell migration (cell number)” value (PC-3 cells [10]) of the same molecule?
**A.** Its value is 1100 cell number and 1076 cell number and 923 cell number.

**Q.** What about the “Cell invasion (cell number)” value (DU145 cells [11]) of the same molecule?
**A.** The value was 1897 cell number and 1923 cell number and 1867 cell number.

**Q.** What about the “Cell invasion (cell number)” value (PC-3 cells [12]) of the same molecule?
**A.** The value was 2300 cell number and 2405 cell number and 2379 cell number.

**Q.** And the “Cell invasion (cell number)” value (22Rv1 cells [13])?
**A.** The value was 1680 cell number and 1543 cell number.

**Q.** What about the “Apoptosis (%)” value (22Rv1 cells [14]) of the same molecule?
**A.** The value was 4.36% and 5.45% and 6.23%.

**Q.** And the “Apoptosis (%)” value (DU145 cells [15])?
**A.** The value was 11.89% and 10.52% and 9.68%.

**Q.** What about the “Apoptosis (%)” value (PC-3 cells [16]) of the same molecule?
**A.** The value was 5.39% and 5.46% and 5.82%.

**Q.** And the “Cell cycle percentages ( % ) G0/G1” value (22Rv1 cells [17])?
**A.** Its value is 69.98% and 71.27% and 73.69%.

**Q.** And the “Cell cycle percentages ( % ) G2/M” value (22Rv1 cells [17])?
**A.** The value was 14.06% and 12.61% and 11.06%.

**Q.** What about the “Cell cycle percentages ( % ) S” value (22Rv1 cells [17]) of the same molecule?
**A.** The value was 15.96% and 16.12% and 15.25%.

**Q.** And the “Cell cycle percentages ( % ) G0/G1” value (DU145 cells [18])?
**A.** Its value is 57.27% and 58.94% and 59.05%.

**Q.** And the “Cell cycle percentages ( % ) G2/M” value (DU145 cells [18])?
**A.** Its value is 23.68% and 22.3% and 24.16%.

**Q.** And the “Cell cycle percentages ( % ) S” value (DU145 cells [18])?
**A.** The value was 19.05% and 18.76% and 16.79%.

**Q.** And the “Cell cycle percentages ( % ) G0/G1” value (PC-3 cells [19]; G0/G1)?
**A.** The value was 70.26% and 71.93% and 73.13%.

**Q.** What about the “Cell cycle percentages ( % ) G2/M” value (PC-3 cells [19]; G2/M) of the same molecule?
**A.** The value was 18.02% and 17.63% and 16.26%.

**Q.** And the “Cell cycle percentages ( % ) S” value (PC-3 cells [19]; S)?
**A.** Its value is 11.72% and 10.44% and 10.61%.

**Q.** And the “antitumor activity (in words)” value (DU145 xenograft [20]; DU145 xenograft, 100 mg/kg orally once a day, seven weeks)?
**A.** Its value is “only delayed the tumor growth”.

**Q.** And the “Tumor volume (Fig. 7a)” value (DU145 xenograft [20]; Day 1)?
**A.** Its value is 0.06831 and 0.0728 and 0.08842 and 0.07149 and 0.08267 and 0.0792 and 0.07365 and 0.09986 and 0.09475 and 0.08367.

**Q.** And the “Tumor volume (Fig. 7a)” value (DU145 xenograft [20]; Day 3)?
**A.** Its value is 0.1054 and 0.1066 and 0.1367 and 0.1112 and 0.1273 and 0.1097 and 0.1065 and 0.1474 and 0.1553 and 0.1239.

**Q.** And the “Tumor volume (Fig. 7a)” value (DU145 xenograft [20]; Day 5)?
**A.** The value was 0.1354 and 0.1343 and 0.1923 and 0.144 and 0.1749 and 0.1417 and 0.1334 and 0.2305 and 0.2202 and 0.1878.

**Q.** And the “Tumor volume (Fig. 7a)” value (DU145 xenograft [20]; Day 7)?
**A.** Its value is 0.1816 and 0.1822 and 0.2496 and 0.1945 and 0.234 and 0.2013 and 0.2322 and 0.3186 and 0.2993 and 0.2348.

**Q.** What about the “Tumor volume (Fig. 7a)” value (DU145 xenograft [20]; Day 9) of the same molecule?
**A.** Its value is 0.236 and 0.2398 and 0.2946 and 0.2457 and 0.337 and 0.2675 and 0.2935 and 0.3821 and 0.38 and 0.3125.

**Q.** And the “Tumor volume (Fig. 7a)” value (DU145 xenograft [20]; Day 11)?
**A.** Its value is 0.2749 and 0.3065 and 0.4056 and 0.2756 and 0.3984 and 0.3105 and 0.3205 and 0.5039 and 0.4644 and 0.382.

**Q.** What about the “Tumor volume (Fig. 7a)” value (DU145 xenograft [20]; Day 13) of the same molecule?
**A.** Its value is 0.3292 and 0.3636 and 0.3775 and 0.3177 and 0.4798 and 0.3714 and 0.3893 and 0.5706 and 0.5218 and 0.4116.

**Q.** And the “Tumor volume (Fig. 7a)” value (DU145 xenograft [20]; Day 15)?
**A.** Its value is 0.4104 and 0.4397 and 0.4958 and 0.3678 and 0.5629 and 0.4479 and 0.4493 and 0.6357 and 0.6164 and 0.4936.

**Q.** And the “Tumor volume (Fig. 7a)” value (DU145 xenograft [20]; Day 17)?
**A.** The value was 0.473 and 0.4645 and 0.5899 and 0.4301 and 0.6355 and 0.511 and 0.4922 and 0.7115 and 0.6607 and 0.5477.

**Q.** What about the “Tumor volume (Fig. 7a)” value (DU145 xenograft [20]; Day 19) of the same molecule?
**A.** The value was 0.458 and 0.4883 and 0.6303 and 0.4489 and 0.6566 and 0.5391 and 0.5247 and 0.7614 and 0.6322 and 0.6372.

**Q.** What about the “Tumor weight (Fig. 7c)” value (DU145 xenograft [20]; reference drug groups, individual mice, in g (unit assumed)) of the same molecule?
**A.** The value was 1.15 and 1.34 and 1.28 and 1.42 and 1.33 and 1.5 and 1.37 and 1.08 and 1.22 and 1.16.

**Q.** And the “Positive rate ( % ) (Fig. 7f)” value (DU145 xenograft [21])?
**A.** The value was 30.71% and 31.3% and 29.1%.
